Data taken from patent US20250019385A1, “SPIROCYCLIC ANNULATED 2-AMINO-3-CYANO THIOPHENES AND DERIVATIVES FOR THE TREATMENT OF CANCER” (Boehringer Ingelheim International GmbH, priority 2023, published 2025).

Experiments:
LOVO cells = experiment: LOVO CTG proliferation assay (120 h) (CRC, G13D); format: cell-based; settings: Homo sapiens
Protocol: LOVO cells (ATCC No. CCL-229) are dispensed into black 384-well plates, flat and clear bottom (Greiner, PNr. 781091) at a density of 1000 cells per well in 60 μl DMEM (Sigma D6429)+10% FCS (fetal calf serum, HyClone, SH30084.03). Cells are incubated overnight at 37° C. in a humidified tissue culture incubator at 5% CO2. Compounds (10 mM stock in DMSO) are added at logarithmic dose series using the ECHO acoustic liquid handler system (Beckman Coulter), normalizing for added DMSO and including DMSO controls. All compound treatments are performed in technical duplicates. For the TO time point measurement, untreated cells are analyzed at the time of compound addition. Plates are incubated for 120 h, and cell viability is measured using CellTiter-Glo luminescent cell viability reagent (Promega product code G7570). Viability (stated as percent of control) is defined as relative luminescence units RLU of each well divided by the RLU of cells in DMSO controls. IC50 values are determined from viability measurements by non-linear regression using a four-parameter model.
IC50 values of representative compounds according to the invention measured with these assays in the indicated cell lines are presented in Table 46.

[1] = molecular target: KRAS (G12D)::SOS1 protein-protein interaction (Homo sapiens (Human), UniProt P01116, G12D); experiment: KRAS::SOS1 AlphaScreen binding assay (KRAS G12D); settings: GDP
Description: This assay can be used to examine the potency with which compounds according to the invention binding to (mutated) KRAS inhibit the protein-protein interaction between SOS1 and (mutated) KRAS e.g. KRAS G12C, KRAS G12D. […] Low IC50 values in this assay setting are indicative of strong inhibition of protein-protein interaction between SOS1 and KRAS:
These assays measure the inhibitory effect of compounds on KRAS mutant protein-protein interactions using the Alpha Screen technology by Perkin Elmer.
The following (mutant) enzyme forms of KRAS and interacting proteins are used in these assays at the given concentrations:
KRAS (G12D) 1-169, N-terminal 6His-tag, C-terminal avi-tag (Xtal BioStructures, Inc.); final assay concentration 10 nM and SOS1 564-1049, N-terminal 229 GST-tag, TEV cleavage site (Viva Biotech Ltd); final assay concentration 5 nM;
Test compounds dissolved in DMSO are dispensed onto assay plates (Proxiplate 384 PLUS, white, PerkinElmer; 6008289) using an Access Labcyte Workstation with the Labcyte Echo 55x. For the chosen highest assay concentration of 100 μM, 150 nL of compound solution are transferred from a 10 mM DMSO compound stock solution. A series of eleven fivefold dilutions per compound are transferred to the assay plate, compound dilutions are tested in duplicates. DMSO are added as backfill to a total volume of 150 nL.
The assays run on a fully automated robotic system in a darkened room below 100 Lux. To 150 nl of compound dilution 10 μl of a mix including KRAS mutant protein, SOS1 (final assay concentrations see above) and GDP nucleotide (Sigma G7127; final assay concentration 10 μM) in assay buffer (1×PBS, 0.1% BSA, 0.05% Tween 20) are added into columns 1-24.
After 30 minutes incubation time 5 μl of Alpha Screen bead mix in assay buffer are added into columns 1-23. Bead mix consists of AlphaLISA Glutathione Acceptor Beads (PerkinElmer, Cat No AL109) and AlphaScreen Streptavidin Donor Beads (PerkinElmer Cat No 6760002) in assay buffer at a final assay concentration of 10 μg/mL each.
Plates are kept at room temperature in a darkened incubator. After an additional 60 minutes incubation time the signal is measured in a PerkinElmer Envision HTS Multilabel Reader using the AlphaScreen specs from PerkinElmer.
Each plate contains up to 16 wells of a negative control depending on the dilution procedure (platewise or serial) (DMSO instead of test compound; with KRAS mutant::SOS1 GOP mix and bead mix; column 23) and 16 wells of a positive control (DMSO instead of test compound; with KRAS mutant::SOS1 GOP mix w/o bead mix; column 24).
As internal control known inhibitors of KRAS mutant::SOS1 interaction can be measured on each compound plate.
IC50 values are calculated and analyzed with Boehringer Ingelheim's MEGALAB C50 application using a 4 parametric logistic model.
Tables of example compounds disclosed herein contain IC50 values determined using the above assays (see Table 43).

Ba/F3 cells KRAS G12V = experiment: Ba/F3 proliferation assay (KRAS G12V); format: cell-based; settings: Mus musculus, BaF3, 72 h, AlamarBlue viability
Protocol: Ba/F3 cells are ordered from DSMZ (ACC300, Lot17) and grown in RPMI-1640 (ATCC 30-2001)+10% FCS+10 ng/mL IL-3 at 37° C. in 5% […] atmosphere. Plasmids containing KRASG12 mutants (i.e. […], G12C, G12V) are obtained from GeneScript. To generate KRASG12-dependent Ba/F3 models, Ba/F3 cells are transduced with retroviruses containing vectors that harbor KRASG12 isoforms. Platinum-E cells (Cell Biolabs) are used for retrovirus packaging. Retrovirus is added to Ba/F3 cells. To ensure infection, 4 μg/mL polybrene is added and cells are spinfected. Infection efficiency is confirmed by measuring GFP-positive cells using a cell analyzer. Cells with an infection efficiency of 10% to 20% are further cultivated and puromycin selection with 1 μg/mL is initiated. As a control, parental Ba/F3 cells are used to show selection status. Selection is considered successful when parental Ba/F3 cells cultures died. To evaluate the transforming potential of KRASG12 mutations, the growth medium is no longer supplemented with IL-3. Ba/F3 cells harboring the empty vector are used as a control. Approximately ten days before conducting the experiments, puromycin is left out.
For proliferation assays, Ba/F3 cells are seeded into 384-well plates at 1.5×1 (M cells/60 μL in growth media (RPMI-1640+10% FCS). Compounds (10 mM stock in DMSO) are added at logarithmic dose series using the ECHO acoustic liquid handler system (Beckman Coulter), normalizing for added DMSO and including DMSO controls. All compound treatments are performed in technical duplicates. For the TO time point measurement, untreated cells are analyzed at the time of compound addition. Treated cells are incubated for 72 h at 37° C. with 5% CO2 and cell viability is measured in the PerkinElmer Envision Multimode Reader using AlamarBlue™ (ThermoFisher) viability stain. Viability (stated as percent of control) is defined as relative fluorescence units RFU of each well divided by the RFU of cells in DMSO controls. IC50 values are determined from viability measurements by non-linear regression using a four-parameter model.

KRAS (G12D)::SOS1 protein-protein interaction, sequence (P01116 other isoform, or with tags, fused parts or gaps G12D): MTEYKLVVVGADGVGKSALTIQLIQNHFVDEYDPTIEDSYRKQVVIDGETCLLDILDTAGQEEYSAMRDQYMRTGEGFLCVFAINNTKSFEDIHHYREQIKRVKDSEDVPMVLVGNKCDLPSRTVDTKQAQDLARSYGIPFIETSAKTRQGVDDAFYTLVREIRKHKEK

Compound	IC50 (LOVO cells) [nM]	IC50 [1] [nM]	IC50 (Ba/F3 cells KRAS G12V) [nM]
C[C@H](Oc1nc(-c2onc3c2CCC[C@@]32CCCc3sc(N)c(C#N)c32)nc2c1n(C)c(=O)n2[C@H]1CC2CCC1O2)[C@@H]1CCCN1C (stereo partly drawn) [I-17]	14	2	20
CO[C@@H]1C[C@@H]([C@H](C)Oc2nc(-c3onc4c3CCC[C@@]43CCCc4sc(N)c(C#N)c43)nc3c2CN(C2COC2)C[C@]32CCOC2)N(C)C1 [I-58]	84	1	2
C[C@H](Oc1nc(-c2onc3c2CCC[C@@]32CCCc3sc(N)c(C#N)c32)nc2c1n(C)c(=O)n2[C@H]1CCCOC1)[C@@H]1CCCN1C [I-11]	541	6	128
CO[C@@H]1C[C@@H]([C@H](C)Oc2nc(-c3onc4c3CCC[C@@]43CCCc4sc(N)c(C#N)c43)nc3c2n(C)c(=O)n3[C@@H]2CCOC2)N(C)C1 [I-3]	15	1	3
C[C@H](Oc1nc(-c2onc3c2CCC[C@@]32CCCc3sc(N)c(C#N)c32)nc2c1n(C)c(=O)n2[C@H]1CCOC1)[C@@H]1CCCN1C [I-9]	90	2	20
COCCn1c(=O)n(C)c2c(O[C@@H](C)[C@@H]3CCCN3C)nc(-c3onc4c3CCC[C@@]43CCCc4sc(N)c(C#N)c43)nc21 [I-7]	563	5	46
Cc1nn([C@@H]2CCOC2)c2nc(-c3onc4c3CCC[C@@]43CCCc4sc(N)c(C#N)c43)nc(O[C@@H](C)[C@@H]3CCCN3C)c12 [I-42]	107	3	11
CO[C@@H]1C[C@@H]([C@H](C)Oc2nc(-c3onc4c3CCC[C@@]43CCCc4sc(N)c(C#N)c43)nc3c2n(C)c(=O)n3[C@H]2COC[C@@H](C)C2)N(C)C1 [I-52]	–	1	3
CO[C@H]1CCN(C)[C@@H]1[C@H](C)Oc1nc(-c2onc3c2CCC[C@@]32CCCc3sc(N)c(C#N)c32)nc2c1CN(C1COC1)C[C@]21CCOC1 [I-57]	39	1	2
C[C@H](Oc1nc(-c2onc3c2CCC[C@@]32CCCc3sc(N)c(C#N)c32)nc2c1N(C)C(=O)CN2[C@@H]1CCOC1)[C@@H]1CCCN1C [I-37]	31	8	127
C[C@H](Oc1nc(-c2onc3c2CCC[C@@]32CCCc3sc(N)c(C#N)c32)nc2c1n(C)c(=O)n2[C@H]1CO[C@@H](C)C1)[C@@H]1CC[C@H](C)N1C [I-50]	–	4	1
CO[C@H]1C[C@@H]([C@H](C)Oc2nc(-c3onc4c3CCC[C@@]43CCCc4sc(N)c(C#N)c43)nc3c2n(C)c(=O)n3[C@@H]2CCOC2)N(C)C1 [I-2]	3	2	21
Cc1nc2c(O[C@@H](C)[C@@H]3CCCN3C)nc(-c3onc4c3CCC[C@@]43CCCc4sc(N)c(C#N)c43)nc2n1[C@@H]1CCOC1 [I-39]	19	1	12
CO[C@H]1CCN(C)[C@@H]1[C@H](C)Oc1nc(-c2onc3c2CCC[C@@]32CCCc3sc(N)c(C#N)c32)nc2c1n(C)c(=O)n2[C@H]1COC[C@@H](C)C1 [I-51]	–	2	2
C[C@H](Oc1nc(-c2onc3c2CCC[C@@]32CCCc3sc(N)c(C#N)c32)nc2c1n(C)c(=O)n2[C@H]1CO[C@@H](C)C1)[C@@H]1CCCN1C [I-47]	–	1	–

The remaining lines, values ahead:

IC50 (LOVO cells) [nM]	IC50 [1] [nM]	IC50 (Ba/F3 cells KRAS G12V) [nM]	Compound
3	1	–	C[C@H](Oc1nc(-c2noc3c2CCC[C@@]32CCCc3sc(N)c(C#N)c32)nc2c1n(C)c(=O)n2[C@H]1CO[C@@H](C)C1)[C@@H]1CCCN1C [II-5]
8	1	2	C[C@H](Oc1nc(-c2noc3c2CCC[C@@]32CCCc3sc(N)c(C#N)c32)nc2c1n(C)c(=O)n2[C@@H]1CCOC1)[C@@H]1CCCN1C [II-2]
6	1	1	CO[C@@H]1C[C@@H]([C@H](C)Oc2nc(-c3noc4c3CCC[C@@]43CCCc4sc(N)c(C#N)c43)nc3c2COC[C@]32CCOC2)N(C)C1 [II-11]
11	1	1	CO[C@@H]1C[C@@H]([C@H](C)Oc2nc(-c3noc4c3CCC[C@@]43CCCc4sc(N)c(C#N)c43)nc3c2n(C)c(=O)n3[C@@]23COC[C@@H]2C3)N(C)C1 [II-6]
18	1	2	CO[C@@H]1C[C@@H]([C@H](C)Oc2nc(-c3noc4c3CCC[C@@]43CCCc4sc(N)c(C#N)c43)nc3c2CN(C2COC2)C[C@]32CCOC2)N(C)C1 [II-14]
7	1	1	C[C@H](Oc1nc(-c2noc3c2CCC[C@@]32SCCc3sc(N)c(C#N)c32)nc2c1COC[C@]21CCOC1)[C@@H]1CCCN1C [II-16]
130	5	37	C[C@H](Oc1nc(-c2noc3c2CCC[C@@]32CCCc3sc(N)c(C#N)c32)nc2c1CN(c1ncccn1)[C@@]21CCOC1)[C@@H]1CCCN1C [II-7b]
2	1	1	C[C@H](Oc1nc(-c2noc3c2CCC[C@@]32CCCc3sc(N)c(C#N)c32)nc2c1COC[C@]21CCOC1)[C@@H]1CCCN1C [II-8]
17	1	2	C[C@H](Oc1nc(-c2noc3c2CCC[C@@]32CCCc3sc(N)c(C#N)c32)nc2c1CNC[C@]21CCOC1)[C@@H]1CCCN1C [II-15]
2	1	2	CO[C@H]1CCN(C)[C@@H]1[C@H](C)Oc1nc(-c2noc3c2CCC[C@@]32CCCc3sc(N)c(C#N)c32)nc2c1n(C)c(=O)n2[C@@H]1CCOC1 [II-1]
109	1	1	C[C@H](Oc1nc(-c2noc3c2CCC[C@@]32CCCc3sc(N)c(C#N)c32)nc2c1CN(C1COC1)C[C@]21CCOC1)[C@@H]1CC[C@H](C)N1C [II-17]
